Laboratory results published in EP0481320A1, “Novel cyclobutane derivatives” (NIPPON KAYAKU KABUSHIKI KAISHA, priority 1990, dated 1992).

Tested on: herpes simplex 1 virus (HSV-1)
Test: Plaque reduction test of antiviral activity in Vero cells
Format: cell-based
Details: Vero cells infected with 100-150 PFU; agar overlay with test compound; 37°C for 72 hours; plaque count
Procedure: Antiviral activity against herpes simplex 1 virus (HSV-1), which is a DNA virus, was tested by the following method. Vero cells (originating from kidney cells of African Green Monkey) spread in a monolayer onto 6-wells multiplate were infected with 100-150 PFU (Plaque Forming Units) of the virus. After a 1-hour adsorption period at 37°C, an agar medium (Eagle's minimum essential medium containing 1.5% agar) containing respective concentrations of the test compound (obtained in Example 4) was overlaid thereonto, and cultured in a 5% (V/V) carbon dioxide incubator at 37°C for 72 hours. The number of plaques formed was counted, from which the 50% inhibition concentration (IC₅₀) was determined.

Row | SMILES | IC₅₀ (µg/ml) (HSV-1) [µg/mL]
1 | CC(O)C1C(CO)CC1n1cnc2c(=O)[nH]c(N)nc21 (single isomer, unassigned) [4-1, 9-[(1β,2α,3β)-2-(1-hydroxyethyl)-3-hydroxymethyl-1-cyclobutyl]guanine-(1)] | 45.2
2 | CC(O)C1C(CO)CC1n1cnc2c(=O)[nH]c(N)nc21 (single isomer, unassigned) [4-2, 9-[(1β,2α,3β)-2-(1-hydroxyethyl)-3-hydroxymethyl-1-cyclobutyl]guanine-(2)] | 0.163
